These are literature values, as cited in PMC4408534 (Journal of nuclear medicine : official publication, Society …, 2014).

The subject of data set [1] is human SSTR2-transfected cell membranes. Conditions: ± SEM, ref [27].
Data set [2] concerns rat SSTR2 expressed in AR42J membranes. Conditions: ref [28].

Turning to `C[C@@H](O)[C@H](NC(=O)[C@@H]1CSSC[C@H](NC(=O)[C@@H](Cc2ccccc2)NC(=O)CN2CCN(CC(=O)[O-])CCN(CC(=O)[O-])CCN(CC(=O)[O-])CC2)C(=O)N[C@@H](Cc2ccc(O)cc2)C(=O)N[C@H](Cc2c[nH]c3ccccc23)C(=O)N[C@@H](CCCCN)C(=O)N[C@@H]([C@@H](C)O)C(=O)N1)C(=O)O.[177Lu+3]` [177-Lu-Dotatate, Lu-177-Tyr3-octreotate], the “binding affinity, human SSTR2” value in data set [1] was 1.5 ± 0.4 nM. Besides, in data set [2], the “binding affinity, rat SSTR2” value was 0.21 to 0.23 nM.
